Where a name gives a salt, the structure may show the parent alone.
How the values were obtained:
[1] = test system: APP mutant transgenic mice; assay: Morris water maze, wild and APP mutant transgenic mice; assay type: in vivo, mouse; details: daily i.p. for 6 months, FIG. 6
Description: The neuro- and memoryprotective effect of the compounds of invention was studied on wild and APP mutant transgenic mice. These mice express high levels of mutant beta-amyloid and, with increasing age, develop both substantial amyloid plaque load and memory deficits. Spatial memory disfunction [with the Morris water maze (MWM) behavioural task assay] and histological assays (cell density, astroglial response, tau-pathology, amyloid-histology and dendritic spine density) in the hippocampal (HC) region (key area for the memory-function) were performed.
The Morris water navigation task is a behavioral procedure widely used in behavioral neuroscience to study spatial learning and memory. The classic measure of learning is latency, which is the time it takes to find the platform after repeating the task daily.
16 adult female APP+ transgenic and 16 adult female wild type mice were the subjects of the experiment. The animals were housed in sterile mouse cages with a natural dark/light cycle, they had free access to food and water throughout the experiment. After arrival, the mice were daily gently handled for a week. […]
Spatial learning and memory were assessed in a circular pool (diameter: 130 cm, height: 60 cm), filled with water (23±1° C.) and made opaque with milk. […]
The data were recorded and evaluated automatically by using a video tracking system. […]

B16F10 melanoma cells = assay: Lysosomal destabilization, FITC-conjugated dextran fluorescence; assay type: cell-based, mouse
Description: Emerging evidence argues that both classic apoptosis pathways and lysosomal death pathways must be suppressed for effective development and progression of cancer. Tumor invasion and metastasis are associated with altered lysosomal trafficking and increased expression of the lysosomal proteases termed cathepsins. […] Normal cells respond to death stimuli by undergoing caspase-dependent apoptosis, the best characterized form of programmed cell death. In contrast, cancer cells frequently escape spontaneous and therapy-induced caspase activation due to acquired mutations in the apoptotic machinery. Apoptosis-resistant cancer cells are, however, not completely resistant to cell death, but can die via alternative cell death pathways often involving non-caspase proteases such as lysosomal cathepsins. Therefore, development of novel anticancer drugs that can trigger alternative death pathways that are independent of commonly mutated apoptosis-regulating genes is of great importance. […] Lysosomal destabilization could be followed by measuring the fluorescence intensity of the pH sensitive FITC-conjugated dextran. Lysosomal pH was determined by allowing the B16F10 melanoma cells to endocytose different amount of FITC-conjugated dextran (40 kDa) (from 10 mg/ml stock) for 24 h. […] Fluorescence was measured by plate reader using an excitation and emission wavelengths of 485 nm and 538 nm respectively.

`COC(=O)C1=C(CCN(C)C)N(C)C(CCN(C)C)=C(C(=O)OC)C1c1ccc(C(F)(F)F)cc1` [Example 23, Dimethyl 4-(4-trifuoromethylphenyl)-2,6-bis-(2-dimethylaminoethyl)-1-methyl-1,4-dihydropyridine-3,5-dicarboxylate dihydrochloride] was tested, and the “spatial memory, time to find the hidden platform in Morris water maze” value [1] was “enhances the ability of both the wild type and the memory deficit mutant mice to find the hidden platform”, the “Other in vitro effects (lysosomes)” value (B16F10 melanoma cells) was “lysosome destabilization” and the “fluorescence intensity of FITC-conjugated dextran (lysosomal pH, lysosomal destabilization)” value (B16F10 melanoma cells; Ex. 23 5 μM for 6 hours, compared to Siramesine (20 μm), FIG. 9) was “significantly higher fluorescence intensity”.
